Test results reported in PubChem BioAssay AID1918958 (Molecular Pharmacology Branch, DTP, NCI, 2023).

Tested on: NCI-H196 complex spheroid viability
Test: Anticancer human tumor NCI-H196 cell line growth inhibition [LSD1];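 note: spheroids exposed to agents for 7 days before readout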
Conditions: for IC50: curve of first compound; for viability, T/C: stronger effect = lower value; active = viability on the fitted dose curve at most 10% of control; inactive = the rest
Method in brief: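 Multicellular complex spheroids of tumor cells with human endothelial cells (HUVEC) and mesenchymal stem cells; the LSD1 inhibitor iadademstat was combined with standard-of-care or investigational agents. Top concentration at or near clinical Cmax, half-log dilutions; final DMSO ≤0.25%.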

[1] = second compound 0.1 µM, first compound 0.00316 µM
[2] = second compound 0.1 µM, first compound 0.01 µM
[3] = second compound 0.1 µM, first compound 0.0316 µM
[4] = second compound 0.1 µM, first compound 0.1 µM
[5] = second compound 0.316 µM, first compound 0.00316 µM
[6] = second compound 0.316 µM, first compound 0.01 µM
[7] = second compound 0.316 µM, first compound 0.0316 µM
[8] = second compound 0.316 µM, first compound 0.1 µM
[9] = second compound 1 µM, first compound 0.00316 µM
[10] = second compound 1 µM, first compound 0.01 µM
[11] = second compound 1 µM, first compound 0.0316 µM
[12] = second compound 1 µM, first compound 0.1 µM
[13] = second compound 3.16 µM, first compound 0.00316 µM
[14] = second compound 3.16 µM, first compound 0.01 µM
[15] = second compound 3.16 µM, first compound 0.0316 µM
[16] = second compound 3.16 µM, first compound 0.1 µM
[17] = second compound 10 µM, first compound 0.00316 µM
[18] = second compound 10 µM, first compound 0.01 µM
[19] = second compound 10 µM, first compound 0.0316 µM
[20] = second compound 10 µM, first compound 0.1 µM
[21] = second compound 0.1 µM, first compound 0.000949 µM
[22] = second compound 0.1 µM, first compound 0.003 µM
[23] = second compound 0.1 µM, first compound 0.00949 µM
[24] = second compound 0.1 µM, first compound 0.03 µM
[25] = second compound 0.1 µM, first compound 0.0949 µM
[26] = second compound 0.1 µM, first compound 0.3 µM
[27] = second compound 0.316 µM, first compound 0.000949 µM
[28] = second compound 0.316 µM, first compound 0.003 µM
[29] = second compound 0.316 µM, first compound 0.00949 µM
[30] = second compound 0.316 µM, first compound 0.03 µM
[31] = second compound 0.316 µM, first compound 0.0949 µM
[32] = second compound 0.316 µM, first compound 0.3 µM
[33] = second compound 1 µM, first compound 0.000949 µM
[34] = second compound 1 µM, first compound 0.003 µM
[35] = second compound 1 µM, first compound 0.00949 µM
[36] = second compound 1 µM, first compound 0.03 µM
[37] = second compound 1 µM, first compound 0.0949 µM
[38] = second compound 1 µM, first compound 0.3 µM
[39] = second compound 3.16 µM, first compound 0.000949 µM
[40] = second compound 3.16 µM, first compound 0.003 µM
[41] = second compound 3.16 µM, first compound 0.00949 µM
[42] = second compound 3.16 µM, first compound 0.03 µM
[43] = second compound 3.16 µM, first compound 0.0949 µM
[44] = second compound 3.16 µM, first compound 0.3 µM
[45] = second compound 10 µM, first compound 0.000949 µM
[46] = second compound 10 µM, first compound 0.003 µM
[47] = second compound 10 µM, first compound 0.00949 µM
[48] = second compound 10 µM, first compound 0.03 µM
[49] = second compound 10 µM, first compound 0.0949 µM
[50] = second compound 10 µM, first compound 0.3 µM

CC[C@@]1(O)C(=O)OCc2c1cc1n(c2=O)Cc2cc3c(CN(C)C)c(O)ccc3nc2-1 + NC1CCC(NC2CC2c2ccccc2)CC1
> 100 nM: IC50 (second compound 0.1 µM) | IC50 (second compound 0.316 µM) | IC50 (second compound 1 µM) | IC50 (second compound 3.16 µM) | IC50 (second compound 10 µM)
inactive: viability, T/C (second compound 0.1 µM, first compound 0.000316 µM) 96.8% | viability, T/C (second compound 0.1 µM, first compound 0.001 µM) 96.4% | viability, T/C [1] 103% | viability, T/C [2] 107% | viability, T/C [3] 115% | viability, T/C [4] 94.1% | viability, T/C (second compound 0.316 µM, first compound 0.000316 µM) 96% | viability, T/C (second compound 0.316 µM, first compound 0.001 µM) 90.2% | viability, T/C [5] 105% | viability, T/C [6] 118% | viability, T/C [7] 110% | viability, T/C [8] 101% | viability, T/C (second compound 1 µM, first compound 0.000316 µM) 89.7% | viability, T/C (second compound 1 µM, first compound 0.001 µM) 105% | viability, T/C [9] 98.6% | viability, T/C [10] 101% | viability, T/C [11] 98.4% | viability, T/C [12] 93.7% | viability, T/C (second compound 3.16 µM, first compound 0.000316 µM) 88.7% | viability, T/C (second compound 3.16 µM, first compound 0.001 µM) 95.3% | viability, T/C [13] 91% | viability, T/C [14] 100% | viability, T/C [15] 111% | viability, T/C [16] 102% | viability, T/C (second compound 10 µM, first compound 0.000316 µM) 94.6% | viability, T/C (second compound 10 µM, first compound 0.001 µM) 89.7% | viability, T/C [17] 98% | viability, T/C [18] 109% | viability, T/C [19] 105% | viability, T/C [20] 95.3%

CCc1c2c(nc3ccc(O)cc13)-c1cc3c(c(=O)n1C2)COC(=O)[C@]3(O)CC + NC1CCC(NC2CC2c2ccccc2)CC1
10 nM: IC50 (second compound 0.1 µM)
active: viability, T/C [24] 3.31% | viability, T/C [25] 0.73% | viability, T/C [26] 1.14% | viability, T/C [30] 3.77% | viability, T/C [31] 1.18% | viability, T/C [32] 0.82% | viability, T/C [36] 2.51% | viability, T/C [37] 0.62% | viability, T/C [38] 0.86% | viability, T/C [42] 2% | viability, T/C [43] 0.56% | viability, T/C [44] 1.03% | viability, T/C [48] 3.63% | viability, T/C [49] 0.8% | viability, T/C [50] 0.85%
10.1 nM: IC50 (second compound 3.16 µM)
9.56 nM: IC50 (second compound 0.316 µM)
inactive: viability, T/C [21] 113% | viability, T/C [22] 104% | viability, T/C [23] 52.8% | viability, T/C [27] 123% | viability, T/C [28] 104% | viability, T/C [29] 52.5% | viability, T/C [33] 120% | viability, T/C [34] 111% | viability, T/C [35] 57.1% | viability, T/C [39] 109% | viability, T/C [40] 91.2% | viability, T/C [41] 55.3% | viability, T/C [45] 113% | viability, T/C [46] 98.7% | viability, T/C [47] 60.1%
11 nM: IC50 (second compound 1 µM)
11.4 nM: IC50 (second compound 10 µM)

COc1cc(C2c3cc4c(cc3C(OC3OC5COC(C)OC5C(O)C3O)C3COC(=O)C23)OCO4)cc(OC)c1O (stereo not given) + NC1CCC(NC2CC2c2ccccc2)CC1
inactive: viability, T/C [23] 94.1% | viability, T/C [24] 97.2% | viability, T/C [25] 113% | viability, T/C [26] 104% | viability, T/C (second compound 0.1 µM, first compound 0.949 µM) 87.1% | viability, T/C (second compound 0.1 µM, first compound 3 µM) 59.7% | viability, T/C [29] 102% | viability, T/C [30] 90.1% | viability, T/C [31] 104% | viability, T/C [32] 104% | viability, T/C (second compound 0.316 µM, first compound 0.949 µM) 94.7% | viability, T/C (second compound 0.316 µM, first compound 3 µM) 66.1% | viability, T/C [35] 89.5% | viability, T/C [36] 105% | viability, T/C [37] 98.8% | viability, T/C [38] 103% | viability, T/C (second compound 1 µM, first compound 0.949 µM) 93.4% | viability, T/C (second compound 1 µM, first compound 3 µM) 70.3% | viability, T/C [41] 120% | viability, T/C [42] 91.2% | viability, T/C [43] 104% | viability, T/C [44] 110% | viability, T/C (second compound 3.16 µM, first compound 0.949 µM) 89.6% | viability, T/C (second compound 3.16 µM, first compound 3 µM) 55.9% | viability, T/C [47] 103% | viability, T/C [48] 91.9% | viability, T/C [49] 95.5% | viability, T/C [50] 96.3% | viability, T/C (second compound 10 µM, first compound 0.949 µM) 81.6% | viability, T/C (second compound 10 µM, first compound 3 µM) 59.1%
> 3000 nM: IC50 (second compound 0.1 µM) | IC50 (second compound 0.316 µM) | IC50 (second compound 1 µM) | IC50 (second compound 3.16 µM) | IC50 (second compound 10 µM)

Nc1ccn(C2OC(CO)C(O)C2(F)F)c(=O)n1 (stereo not given) + NC1CCC(NC2CC2c2ccccc2)CC1
inactive: viability, T/C [21] 104% | viability, T/C [22] 98.6% | viability, T/C [23] 85.9% | viability, T/C [24] 65.1% | viability, T/C [25] 61.8% | viability, T/C [26] 68.1% | viability, T/C [27] 96.8% | viability, T/C [28] 99.3% | viability, T/C [29] 93.7% | viability, T/C [30] 69.2% | viability, T/C [31] 59.2% | viability, T/C [32] 70.3% | viability, T/C [33] 97.3% | viability, T/C [34] 96.7% | viability, T/C [35] 85% | viability, T/C [36] 63.9% | viability, T/C [37] 64.2% | viability, T/C [38] 63.5% | viability, T/C [39] 99.7% | viability, T/C [40] 103% | viability, T/C [41] 88.2% | viability, T/C [42] 63.8% | viability, T/C [43] 63.8% | viability, T/C [44] 68.3% | viability, T/C [45] 94.2% | viability, T/C [46] 108% | viability, T/C [47] 86.5% | viability, T/C [48] 75.6% | viability, T/C [49] 65% | viability, T/C [50] 67.4%
> 300 nM: IC50 (second compound 0.1 µM) | IC50 (second compound 0.316 µM) | IC50 (second compound 1 µM) | IC50 (second compound 3.16 µM) | IC50 (second compound 10 µM)

Nc1ncn(C2CC(O)C(CO)O2)c(=O)n1 (stereo not given) + NC1CCC(NC2CC2c2ccccc2)CC1
> 1000 nM: IC50 (second compound 0.1 µM) | IC50 (second compound 0.316 µM) | IC50 (second compound 1 µM) | IC50 (second compound 3.16 µM) | IC50 (second compound 10 µM)
inactive: viability, T/C [1] 94.3% | viability, T/C [2] 96.1% | viability, T/C [3] 96.1% | viability, T/C [4] 92.5% | viability, T/C (second compound 0.1 µM, first compound 0.316 µM) 93.3% | viability, T/C (second compound 0.1 µM, first compound 1 µM) 93% | viability, T/C [5] 91% | viability, T/C [6] 97.4% | viability, T/C [7] 114% | viability, T/C [8] 96.7% | viability, T/C (second compound 0.316 µM, first compound 0.316 µM) 96.9% | viability, T/C (second compound 0.316 µM, first compound 1 µM) 99.3% | viability, T/C [9] 87.8% | viability, T/C [10] 94.9% | viability, T/C [11] 94.9% | viability, T/C [12] 88.5% | viability, T/C (second compound 1 µM, first compound 0.316 µM) 93.8% | viability, T/C (second compound 1 µM, first compound 1 µM) 101% | viability, T/C [13] 94.5% | viability, T/C [14] 95.8% | viability, T/C [15] 99.2% | viability, T/C [16] 89.6% | viability, T/C (second compound 3.16 µM, first compound 0.316 µM) 87.1% | viability, T/C (second compound 3.16 µM, first compound 1 µM) 91.2% | viability, T/C [17] 91.2% | viability, T/C [18] 94.8% | viability, T/C [19] 91.2% | viability, T/C [20] 87.5% | viability, T/C (second compound 10 µM, first compound 0.316 µM) 92.9% | viability, T/C (second compound 10 µM, first compound 1 µM) 91.3%
